# Reference: US20220117938A1, “COMBINATON THERAPY WITH A DON PRODRUG AND AN IMMUNE CHECKPOINT INHIBITOR” (DRACEN PHARMACEUTICALS, INC., priority 2019, published 2022)
# Tested on: MC38 tumors
# Experiment: Anti-tumor efficacy of Compound 1 and Compound 3 by IV and SC routes in the MC38 model (Example 9)
# Format: in vivo, mice
# Procedure: Female C57BL/6 mice were inoculated subcutaneously in the right flank with MC38 cells for tumor development. Six days after tumor inoculation, mice with tumor sizes ranging from 52-97 mm^3 (average tumor size 71 mm^3) were selected and assigned into 10 groups using stratified randomization with 8 mice per group based upon their tumor volumes. The treatments were started from the day of randomization (defined as D0), Group 1 was treated with Vehicle control, SC qd×5 days on (Mon-Fri)×4 cycles; Group 2 was treated with Compound 1, 1.4 mpk SC, qd×5 days on (Mon-Fri)×4 cycles; Group 3 was treated with Compound 1, 7 mpk IV, biw (Mon, Thu)×4 cycles; Group 4 was treated with Compound 1, 14 mpk IV, biw (Mon, Thu)×4 cycles; Group 5 was treated with Compound 1, 14 mpk IV, qw (Mon)×4 cycles; Group 6 was treated with Compound 1, 21 mpk IV, qw (Mon)×4 cycles; Group 7 was treated with Compound 3, 1 mpk SC, qd 5 days on (Mon-Fri)×4 cycles; Group 8 was treated with Compound 3, 3 mpk SC, qd 5 days on (Mon-Fri)×4 cycles; Group 9 was treated with Compound 3, 9 mpk SC, qd 5 days on (Mon-Fri)×4 cycles; and Group 10 was treated with Compound 3, 7 mpk IV, tiw (Mon, Wed, Fri)×4 cycles. The tumor sizes were measured three times per week during the treatment. Survival was monitored with tumor volume exceeding 2000 mm^3 as endpoint. The entire study was terminated on D44 after start of the treatment. All treatments were well-tolerated without any adverse effects or significant body weight loss.
# [1] = Group 7, 1 mpk SC qd Mon-Fri x4 cycles
# [2] = Group 7, 1 mpk SC qd Mon-Fri x4 cycles, day 11
# [3] = Group 8, 3 mpk SC qd Mon-Fri x4 cycles
# [4] = Group 8, 3 mpk SC qd Mon-Fri x4 cycles, day 11
# [5] = Group 9, 9 mpk SC qd Mon-Fri x4 cycles
# [6] = Group 9, 9 mpk SC qd Mon-Fri x4 cycles, day 11
# [7] = Group 10, 7 mpk IV tiw x4 cycles
compound,measurement,setting,value
"CC(=O)N[C@@H](Cc1c[nH]c2ccccc12)C(=O)N[C@@H](CCC(=O)C=[N+]=[N-])C(=O)O [Compound 3, (S)-2-((S)-2-acetamido-3-(1H-indol-3-yl)propanamido)-6-diazo-5-oxohexanoic acid]",ILS,[1],106.7%
same,MST,[1],31 days
same,RTV at day 11,[1],2.22 ± 0.22
same,Tumor Size at day 11,[1],152 ± 10 mm^3
same,Tumor volume,"Group 7, 1 mpk SC qd Mon-Fri x4 cycles, day 0",70 ± 4 mm^3
same,Tumor volume,"Group 7, 1 mpk SC qd Mon-Fri x4 cycles, day 2",91 ± 9 mm^3
same,Tumor volume,"Group 7, 1 mpk SC qd Mon-Fri x4 cycles, day 4",83 ± 9 mm^3
same,Tumor volume,"Group 7, 1 mpk SC qd Mon-Fri x4 cycles, day 7",201 ± 26 mm^3
same,Tumor volume,"Group 7, 1 mpk SC qd Mon-Fri x4 cycles, day 9",181 ± 18 mm^3
same,T/C,[2],13.66%
same,TGI,[2],92.34%
same,Tumor volume,[2],152 ± 10 mm^3
same,Tumor volume,"Group 7, 1 mpk SC qd Mon-Fri x4 cycles, day 14",293 ± 60 mm^3
same,Tumor volume,"Group 7, 1 mpk SC qd Mon-Fri x4 cycles, day 16",298 ± 60 mm^3
same,Tumor volume,"Group 7, 1 mpk SC qd Mon-Fri x4 cycles, day 18",400 ± 79 mm^3
same,Tumor volume,"Group 7, 1 mpk SC qd Mon-Fri x4 cycles, day 21",644 ± 160 mm^3
same,Tumor volume,"Group 7, 1 mpk SC qd Mon-Fri x4 cycles, day 23",975 ± 238 mm^3
same,ILS,[3],170.0%
same,MST,[3],40.5 days
same,RTV at day 11,[3],0.85 ± 0.11
same,Tumor Size at day 11,[3],39 ± 5 mm^3
same,Tumor volume,"Group 8, 3 mpk SC qd Mon-Fri x4 cycles, day 0",70 ± 5 mm^3
same,Tumor volume,"Group 8, 3 mpk SC qd Mon-Fri x4 cycles, day 2",88 ± 7 mm^3
same,Tumor volume,"Group 8, 3 mpk SC qd Mon-Fri x4 cycles, day 4",59 ± 9 mm^3
same,Tumor volume,"Group 8, 3 mpk SC qd Mon-Fri x4 cycles, day 7",57 ± 14 mm^3
same,Tumor volume,"Group 8, 3 mpk SC qd Mon-Fri x4 cycles, day 9",45 ± 6 mm^3
same,T/C,[4],5.22%
same,TGI,[4],101.21%
same,Tumor volume,[4],39 ± 5 mm^3
same,Tumor volume,"Group 8, 3 mpk SC qd Mon-Fri x4 cycles, day 14",41 ± 7 mm^3
same,Tumor volume,"Group 8, 3 mpk SC qd Mon-Fri x4 cycles, day 16",47 ± 7 mm^3
same,Tumor volume,"Group 8, 3 mpk SC qd Mon-Fri x4 cycles, day 18",22 ± 4 mm^3
same,Tumor volume,"Group 8, 3 mpk SC qd Mon-Fri x4 cycles, day 21",29 ± 3 mm^3
same,Tumor volume,"Group 8, 3 mpk SC qd Mon-Fri x4 cycles, day 23",26 ± 2 mm^3
same,Tumor volume,"Group 8, 3 mpk SC qd Mon-Fri x4 cycles, day 25",23 ± 4 mm^3
same,Tumor volume,"Group 8, 3 mpk SC qd Mon-Fri x4 cycles, day 28",22 ± 4 mm^3
same,Tumor volume,"Group 8, 3 mpk SC qd Mon-Fri x4 cycles, day 30",52 ± 8 mm^3
same,Tumor volume,"Group 8, 3 mpk SC qd Mon-Fri x4 cycles, day 32",213 ± 47 mm^3
same,Tumor volume,"Group 8, 3 mpk SC qd Mon-Fri x4 cycles, day 35",351 ± 61 mm^3
same,Tumor volume,"Group 8, 3 mpk SC qd Mon-Fri x4 cycles, day 37",692 ± 129 mm^3
same,ILS,[5],180.0%
same,MST,[5],42 days
same,RTV at day 11,[5],0.56 ± 0.07
same,Tumor Size at day 11,[5],39 ± 5 mm^3
same,Tumor volume,"Group 9, 9 mpk SC qd Mon-Fri x4 cycles, day 0",71 ± 5 mm^3
same,Tumor volume,"Group 9, 9 mpk SC qd Mon-Fri x4 cycles, day 2",88 ± 7 mm^3
same,Tumor volume,"Group 9, 9 mpk SC qd Mon-Fri x4 cycles, day 4",59 ± 9 mm^3
same,Tumor volume,"Group 9, 9 mpk SC qd Mon-Fri x4 cycles, day 7",57 ± 14 mm^3
same,Tumor volume,"Group 9, 9 mpk SC qd Mon-Fri x4 cycles, day 9",45 ± 6 mm^3
same,T/C,[6],3.45%
same,TGI,[6],102.98%
same,Tumor volume,[6],39 ± 5 mm^3
same,Tumor volume,"Group 9, 9 mpk SC qd Mon-Fri x4 cycles, day 14",41 ± 7 mm^3
same,Tumor volume,"Group 9, 9 mpk SC qd Mon-Fri x4 cycles, day 16",47 ± 7 mm^3
same,Tumor volume,"Group 9, 9 mpk SC qd Mon-Fri x4 cycles, day 18",22 ± 4 mm^3
same,Tumor volume,"Group 9, 9 mpk SC qd Mon-Fri x4 cycles, day 21",29 ± 3 mm^3
same,Tumor volume,"Group 9, 9 mpk SC qd Mon-Fri x4 cycles, day 23",26 ± 2 mm^3
same,Tumor volume,"Group 9, 9 mpk SC qd Mon-Fri x4 cycles, day 25",23 ± 4 mm^3
same,Tumor volume,"Group 9, 9 mpk SC qd Mon-Fri x4 cycles, day 28",22 ± 4 mm^3
same,Tumor volume,"Group 9, 9 mpk SC qd Mon-Fri x4 cycles, day 30",52 ± 8 mm^3
same,Tumor volume,"Group 9, 9 mpk SC qd Mon-Fri x4 cycles, day 32",213 ± 47 mm^3
same,Tumor volume,"Group 9, 9 mpk SC qd Mon-Fri x4 cycles, day 35",351 ± 61 mm^3
same,Tumor volume,"Group 9, 9 mpk SC qd Mon-Fri x4 cycles, day 37",692 ± 129 mm^3
same,Tumor volume,"Group 9, 9 mpk SC qd Mon-Fri x4 cycles, day 39",1235 ± 196 mm^3
same,Tumor volume,"Group 9, 9 mpk SC qd Mon-Fri x4 cycles, day 42",2174 ± 275 mm^3
same,ILS,[7],146.7%
same,MST,[7],37 days
same,Tumor volume,"Group 10, 7 mpk IV tiw x4 cycles, day 0",71 ± 5 mm^3
same,Tumor volume,"Group 10, 7 mpk IV tiw x4 cycles, day 2",86 ± 5 mm^3
same,Tumor volume,"Group 10, 7 mpk IV tiw x4 cycles, day 4",76 ± 7 mm^3
same,Tumor volume,"Group 10, 7 mpk IV tiw x4 cycles, day 7",76 ± 8 mm^3
same,Tumor volume,"Group 10, 7 mpk IV tiw x4 cycles, day 9",61 ± 7 mm^3
same,Tumor volume,"Group 10, 7 mpk IV tiw x4 cycles, day 11",68 ± 13 mm^3
same,Tumor volume,"Group 10, 7 mpk IV tiw x4 cycles, day 14",85 ± 16 mm^3
same,Tumor volume,"Group 10, 7 mpk IV tiw x4 cycles, day 16",115 ± 21 mm^3
same,Tumor volume,"Group 10, 7 mpk IV tiw x4 cycles, day 18",107 ± 21 mm^3
same,Tumor volume,"Group 10, 7 mpk IV tiw x4 cycles, day 21",131 ± 21 mm^3
same,Tumor volume,"Group 10, 7 mpk IV tiw x4 cycles, day 23",233 ± 46 mm^3
same,Tumor volume,"Group 10, 7 mpk IV tiw x4 cycles, day 25",273 ± 59 mm^3
same,Tumor volume,"Group 10, 7 mpk IV tiw x4 cycles, day 28",356 ± 103 mm^3
same,Tumor volume,"Group 10, 7 mpk IV tiw x4 cycles, day 30",575 ± 121 mm^3
same,Tumor volume,"Group 10, 7 mpk IV tiw x4 cycles, day 32",849 ± 134 mm^3
same,Tumor volume,"Group 10, 7 mpk IV tiw x4 cycles, day 35",1688 ± 223 mm^3
